Experimental data reported in patent US20220378707A1, “1-(((2S,3S,4S)-3-ETHYL-4-FLUORO-5-OXOPYRROLIDIN-2-YL)METHOXY)-7-METHOXYISOQUINOLINE-6-CARBOXAMIDE COMBINATIONS AND ORAL DOSAGE FORMS” (Pfizer Inc., priority 2019, published 2022).

Test system: coronary artery smooth muscle cells+(IL-1p, TNFα and IFNγ)
Experiment: BioMAP CASM3C system
Type: cell-based, human
Conditions: Th1 vascular smooth muscle inflammation; concentrations of FIGS. 12-14
Source text: The BioMAP systems consist of human primary cell-based systems designed to model different aspects of the human body in an in vitro format. The 12 systems tested characterized the test compounds across a broad set of systems modeling various human disease states. BioMAP systems were constructed with one or more primary cell types from healthy human donors, with stimuli (such as cytokines or growth factors) added to capture relevant signaling networks that naturally occur in human tissue or pathological conditions. […] Soluble factors from supernatants were quantified using either HTRF® detection, bead-based multiplex immunoassay or capture ELISA. Overt adverse effects of test agents on cell proliferation and viability (cytotoxicity) were detected by sulforhodamine B (SRB) staining, for adherent cells, and alamarBlue® reduction for cells in suspension. […] Each tested compound generated a signature BioMAP profile that was created from the changes in protein biomarker readouts within individual system environments. […] Each readout was measured quantitatively by immune-based methods that detected protein (e.g., ELISA) or functional assays that measured proliferation and viability. BioMAP readouts were diverse and included cell surface receptors, cytokines, chemokines, matrix molecules and enzymes. […]

Row | Structure (SMILES) | Inhibition of biomarker readouts in the CASM3C system
1 | CC[C@@H]1[C@H](F)C(=O)N[C@@H]1COc1nccc2cc(C(N)=O)c(OC)cc12 [PF-06650833, 1-(((2S,3S,4S)-3-Ethyl-4-fluoro-5-oxopyrrolidin-2-yl)methoxy)-7-methoxyisoquinoline-6-carboxamide] | IL-6
2 | C[C@@H]1CCN(C(=O)CC#N)C[C@@H]1N(C)c1ncnc2[nH]ccc12 [tofacitinib, 3-((3R,4R)-4-Methyl-3-(methyl(7H-pyrrolo[2,3-d]pyrimidin-4-yl)amino)piperidin-1-yl)-3-oxopropanenitrile] | MIG
